The target in this test is T1, human TRPA1 (Homo sapiens, UniProt O75762).
T1 construct: expressed in transfected cells
The test can be described thus: Cell-based functional intracellular calcium ([Ca2+]i) assay, Fluo-4/Fluo-8, FlexStation, challenge with reference TRPA1 agonist (FFA, AITC or 4-HNE). The following applies: HEK293 cells expressing human TRPA1; IC50 class after addition of reference TRPA1 agonist (FFA, AITC or 4-HNE); read-out: human TRPA1-HEK Activity. Put shortly:
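Doxycycline-induced (1 μg/ml) HEK293 expressing human TRPA1, with 5 μM ruthenium red during induction, loaded with Fluo-4 or Fluo-8 plus 2 mM probenecid; FlexStation read at 20-25° C, sometimes with 0.1% BSA.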
In general terms: Calcium assays in cells follow changes in intracellular calcium, usually with a dye or a luminescent sensor.

Structures are written as SMILES.

T1 sequence (O75762 whole entry): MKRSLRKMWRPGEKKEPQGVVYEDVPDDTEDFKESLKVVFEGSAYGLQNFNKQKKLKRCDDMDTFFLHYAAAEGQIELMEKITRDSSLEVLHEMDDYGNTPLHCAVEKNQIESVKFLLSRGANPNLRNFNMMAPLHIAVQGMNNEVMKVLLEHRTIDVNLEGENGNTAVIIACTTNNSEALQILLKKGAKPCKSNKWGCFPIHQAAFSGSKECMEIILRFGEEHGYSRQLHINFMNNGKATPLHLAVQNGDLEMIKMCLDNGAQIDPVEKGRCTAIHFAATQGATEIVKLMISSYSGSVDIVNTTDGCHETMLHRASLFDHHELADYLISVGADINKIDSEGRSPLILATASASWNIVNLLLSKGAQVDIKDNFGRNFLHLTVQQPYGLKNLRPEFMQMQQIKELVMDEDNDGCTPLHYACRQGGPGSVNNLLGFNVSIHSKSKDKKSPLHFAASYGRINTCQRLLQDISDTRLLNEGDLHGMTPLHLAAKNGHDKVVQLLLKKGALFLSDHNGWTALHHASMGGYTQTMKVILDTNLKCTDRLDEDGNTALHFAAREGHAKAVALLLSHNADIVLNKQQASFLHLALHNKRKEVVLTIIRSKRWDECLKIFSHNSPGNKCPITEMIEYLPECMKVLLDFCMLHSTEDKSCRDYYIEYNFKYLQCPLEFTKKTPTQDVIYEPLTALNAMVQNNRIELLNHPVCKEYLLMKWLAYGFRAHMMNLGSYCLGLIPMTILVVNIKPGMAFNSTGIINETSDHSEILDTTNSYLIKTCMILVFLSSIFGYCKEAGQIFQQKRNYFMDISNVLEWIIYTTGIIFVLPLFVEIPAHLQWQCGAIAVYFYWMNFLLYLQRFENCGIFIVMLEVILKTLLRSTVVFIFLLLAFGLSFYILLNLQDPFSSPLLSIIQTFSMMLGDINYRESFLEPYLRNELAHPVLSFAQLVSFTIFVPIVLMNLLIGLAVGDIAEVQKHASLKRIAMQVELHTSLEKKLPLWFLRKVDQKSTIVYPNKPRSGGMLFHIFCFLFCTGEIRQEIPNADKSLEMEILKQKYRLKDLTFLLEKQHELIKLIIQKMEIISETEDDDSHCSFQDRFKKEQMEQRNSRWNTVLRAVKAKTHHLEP

As for `O=C(c1cc(-c2ccc(Cl)nc2)n(-c2ccc(C(F)(F)F)c(F)c2)n1)N1CCC2(CC1)C(=O)NCN2c1ccc(F)cc1` [Compound 238], the IC50 is 0.001 to 5 µM.

Consider `O=C(c1cc(-c2ccc(Cl)nc2)n(-c2ccc(C(F)(F)F)c(F)c2)n1)N1CCC(n2c(=O)[nH]c3ccc(F)c(F)c32)CC1` [Compound 239], for which the IC50 was in the range of 0.001 to 5 µM.

Turning to `N#Cc1ccc2[nH]c(=O)n(C3CCN(C(=O)c4cc(-c5cccnc5)n(-c5ccc(F)c(C(F)(F)F)c5)n4)CC3)c2c1` [Compound 240], the IC50 was in the range of 0.001 to 5 µM.

Take `O=C(c1cc(-c2cccnc2)n(-c2ccc(F)c(C(F)(F)F)c2)n1)N1CCC(n2c(=O)[nH]c3ccc(F)c(F)c32)CC1` [Compound 241]: the IC50 was 0.001 to 5 µM.

Consider `Cc1cc(N2CNC(=O)C23CCN(C(=O)c2cc(-c4cccnc4)n(-c4ccc(F)c(C(F)(F)F)c4)n2)CC3)cc(C)c1F` [Compound 242], for which the IC50 was in the range of 0.001 to 5 µM.

In the case of `N#Cc1cccc2[nH]c(=O)n(C3CCN(C(=O)c4cc(-c5cccnc5)n(-c5ccc(C(F)(F)F)c(F)c5)n4)CC3)c12` [Compound 243], the IC50 was > 25 µM.

`N#Cc1c(F)ccc2[nH]c(=O)n(C3CCN(C(=O)c4cc(-c5cccnc5)n(-c5ccc(C(F)(F)F)c(F)c5)n4)CC3)c12` [Compound 244]: the IC50 was 5 to 25 µM.

In the case of `N#Cc1cc(C(F)(F)F)ccc1-n1nc(C(=O)N2CCC(n3c(=O)[nH]c4ccc(F)c(F)c43)CC2)cc1-c1cccnc1` [Compound 245], the IC50 was > 25 µM.

As to `O=C(c1cc(-c2cccnc2)n(-c2ccc(I)cc2)n1)N1CCC2(CC1)C(=O)NCN2c1ccc(F)cc1` [Compound 246], the IC50 fell in the range of 0.001 to 5 µM.

`O=C(c1cc(-c2cccnc2Cl)n(-c2ccc(C(F)(F)F)c(F)c2)n1)N1CCC(n2c(=O)[nH]c3ccc(F)c(F)c32)CC1` [Compound 247]: the IC50 is > 25 µM.

Take `N#Cc1cc(-n2nc(C(=O)N3CCC(n4c(=O)[nH]c5ccc(F)c(F)c54)CC3)cc2-c2cccnc2)ccc1F` [Compound 248]: the IC50 was in the range of 0.001 to 5 µM.

For the compound `Cc1cc(N2CNC(=O)C23CCN(C(=O)c2cc(-c4cccnc4)n(-c4ccc(F)c(C#N)c4)n2)CC3)cc(C)c1F` [Compound 249], the IC50 lay in the range of 0.001 to 5 µM.

Consider `O=C(c1cc(-c2cccnc2)n(-c2cc(F)c(F)c(F)c2)n1)N1C2CCC1CC(n1c(=O)[nH]c3ccc(F)c(F)c31)C2` (stereo not shown) [Compound 250], for which the IC50 was > 25 µM.

Consider `O=C(c1cc(-c2ccccn2)n(-c2cc(F)c(F)c(F)c2)n1)N1CCC(n2c(=O)[nH]c3ccc(F)c(F)c32)CC1` [Compound 252], for which the IC50 lay in the range of 5 to 25 µM.

For `O=C(c1cc(-c2cccnc2)n(-c2cc(F)c(F)c(F)c2)n1)N1CCC2(CC1)C(=O)NCN2c1ccc(F)cc1` [Compound 253], the IC50 is 0.001 to 5 µM.

With `O=C(c1cc(-c2cccnc2)n(-c2cc(F)c(F)c(F)c2)n1)N1CCC2(CC1)C(=O)NCN2c1ccc(F)c(F)c1` [Compound 254], the IC50 fell in the range of 0.001 to 5 µM.

With `Cc1cc(N2CNC(=O)C23CCN(C(=O)c2cc(-c4cccnc4)n(-c4cc(F)c(F)c(F)c4)n2)CC3)ccc1F` [Compound 255], the IC50 fell in the range of 0.001 to 5 µM.

Consider `O=C(c1cc(-c2cccnc2)n(-c2cc(F)c(F)c(F)c2)n1)N1CCC(n2c(=O)[nH]c3ncccc32)CC1` [Compound 256], for which the IC50 was > 25 µM.

Turning to `O=C(c1cc(-c2cccnc2)n(-c2cc(F)c(F)c(F)c2)n1)N1CCC2(CC1)C(=O)NCN2c1ccc(F)cc1F` [Compound 257], the IC50 was > 25 µM.

For the compound `O=C1Nc2ccccc2C1N1CCN(C(=O)c2cc(-c3cccnc3)n(-c3ccc(C(F)(F)F)c(F)c3)n2)CC1` (stereo not shown) [Compound 258], the IC50 is > 25 µM.

For the compound `O=C(c1cc(-c2cccnc2)n(-c2ccc(C(F)(F)F)c(F)c2)n1)N1CCC2(CC1)C(=O)Nc1ccccc12` [Compound 259], the IC50 was 5 to 25 µM.

`O=C(c1cc(-c2cccnc2)n(-c2ccc(C(F)(F)F)c(F)c2)n1)N1CCC(n2c(=O)[nH]c3ncccc32)CC1` [Compound 260]: the IC50 fell in the range of 0.001 to 5 µM.

As for `CC1CC(n2c(=O)[nH]c3ccccc32)CCN1C(=O)c1cc(-c2cccnc2)n(-c2ccc(C(F)(F)F)c(F)c2)n1` (stereo not shown) [Compound 261], the IC50 was 0.001 to 5 µM.

Consider `Cc1ccc(-c2cc(C(=O)N3CCC4(CC3)C(=O)NCN4c3ccc(F)cc3)nn2-c2ccc(C(F)(F)F)c(F)c2)cn1` [Compound 262], for which the IC50 fell in the range of 5 to 25 µM.

Regarding `Cc1nc(C(F)(F)F)ccc1-c1cc(C(=O)N2CCC3(CC2)C(=O)NCN3c2ccc(F)cc2)nn1-c1ccc(C(F)(F)F)c(F)c1` [Compound 263], the IC50 is > 25 µM.

With `O=C(c1cc(-c2ccccn2)n(-c2ccc(C(F)(F)F)c(F)c2)n1)N1CCC2(CC1)C(=O)NCN2c1ccc(F)cc1` [Compound 264], the IC50 fell in the range of 5 to 25 µM.

Regarding `Cc1c(C(=O)N2CCC3(CC2)C(=O)NCN3c2ccc(F)cc2)nn(-c2ccc(C(F)(F)F)c(F)c2)c1-c1cccnc1` [Compound 265], the IC50 lay within 0.001 to 5 µM.

On to `Cc1c(C(=O)N2CCC3(CC2)C(=O)NCN3c2ccc(F)cc2)nn(-c2cc(F)c(F)c(F)c2)c1-c1cccnc1` [Compound 266], for which the IC50 was 0.001 to 5 µM.

In the case of `O=C1Nc2ccc(F)c(F)c2C2(CCN(C(=O)c3cc(-c4cccnc4)n(-c4ccc(F)c(C(F)(F)F)c4)n3)CC2)O1` [Compound 272], the IC50 was in the range of 0.001 to 5 µM.

As for `O=C1Nc2cc(F)c(F)cc2C2(CCN(C(=O)c3cc(-c4cccnc4)n(-c4ccc(F)c(C(F)(F)F)c4)n3)CC2)O1` [Compound 273], the IC50 is 0.001 to 5 µM.

With `O=C1Nc2ccc(C(F)(F)F)cc2C2(CCN(C(=O)c3cc(-c4cccnc4)n(-c4ccc(F)c(C(F)(F)F)c4)n3)CC2)O1` [Compound 274], the IC50 was 0.001 to 5 µM.

Consider `O=C1Nc2cc(F)ccc2C2(CCN(C(=O)c3cc(-c4cccnc4)n(-c4ccc(F)c(C(F)(F)F)c4)n3)CC2)O1` [Compound 278], for which the IC50 fell in the range of 0.001 to 5 µM.

In the case of `O=C1Nc2ccc(Cl)cc2C2(CCN(C(=O)c3cc(-c4cccnc4)n(-c4ccc(F)c(C(F)(F)F)c4)n3)CC2)O1` [Compound 280], the IC50 lay in the range of 0.001 to 5 µM.

`O=C1Nc2ncccc2C2(CCN(C(=O)c3cc(-c4cccnc4)n(-c4ccc(F)c(C(F)(F)F)c4)n3)CC2)O1` [Compound 281]: the IC50 fell in the range of 0.001 to 5 µM.

On to `O=C1Nc2ccc(F)cc2C2(CCN(C(=O)c3cc(-c4cccnc4)n(-c4ccc(F)c(C(F)(F)F)c4)n3)CC2)O1` [Compound 282], for which the IC50 was 0.001 to 5 µM.

As to `O=C(c1cc(-c2cccnc2)n(-c2ccc(F)c(C(F)(F)F)c2)n1)N1CCC2(CC1)C(=O)NCN2c1ccc(OC(F)F)cc1` [Compound 283], the IC50 was 5 to 25 µM.

In the case of `N#Cc1ccc(-n2nc(C(=O)N3CCC(n4c(=O)[nH]c5ccc(F)c(F)c54)CC3)cc2-c2cccnc2)cc1C(F)(F)F` [Compound 284], the IC50 is 0.001 to 5 µM.

For the compound `O=C(c1cc(-c2cccnc2)n(-c2ccc(C(F)(F)F)c(C(F)(F)F)c2)n1)N1CCC(n2c(=O)[nH]c3ccc(F)c(F)c32)CC1` [Compound 285], the IC50 was 0.001 to 5 µM.

Regarding `Cc1cc(-n2nc(C(=O)N3CCC(n4c(=O)[nH]c5ccc(F)c(F)c54)CC3)cc2-c2cccnc2)cc(C(F)(F)F)c1F` [Compound 286], the IC50 was 0.001 to 5 µM.

Turning to `O=C(c1cc(-c2cccnc2)n(-c2ccc(F)c(C(F)(F)F)c2)n1)N1CCC(N2Cc3c(F)cccc3NC2=O)CC1` [Compound 289], the IC50 fell in the range of 0.001 to 5 µM.

Consider `O=C(c1cc(-c2cccnc2)n(-c2ccc(F)c(C(F)(F)F)c2)n1)N1CCC(N2Cc3ccc(F)cc3NC2=O)CC1` [Compound 290], for which the IC50 was 0.001 to 5 µM.

On to `O=C(c1cc(-c2cccnc2)n(-c2ccc(F)c(C(F)(F)F)c2)n1)N1CCC(n2c(=S)[nH]c3ccc(F)c(F)c32)CC1` [Compound 291], for which the IC50 was 0.001 to 5 µM.

Consider `CC1CC2(CCN1C(=O)c1cc(-c3cccnc3)n(-c3ccc(F)c(C(F)(F)F)c3)n1)OC(=O)Nc1ccc(C(F)(F)F)cc12` (stereo not shown) [Compound 292], for which the IC50 was 5 to 25 µM.

`CC1CC(n2c(=O)[nH]c3ccc(F)c(F)c32)CCN1C(=O)c1cc(-c2cccnc2)n(-c2ccc(F)c(C(F)(F)F)c2)n1` (stereo not shown) [Compound 293]: the IC50 was 0.001 to 5 µM.

With `CC1CC(n2c(=S)[nH]c3ccc(F)c(F)c32)CCN1C(=O)c1cc(-c2cccnc2)n(-c2ccc(F)c(C(F)(F)F)c2)n1` (stereo not shown) [Compound 294], the IC50 lay within 0.001 to 5 µM.

`O=C(c1cc(-c2cccnc2)n(-c2ccc(Cl)c(C(F)(F)F)c2)n1)N1CCC(n2c(=O)[nH]c3ccc(F)c(F)c32)CC1` [Compound 295]: the IC50 was 0.001 to 5 µM.

As to `O=C(c1cc(-c2cccnc2)n(-c2ccc(Cl)c(C(F)(F)F)c2)n1)N1CCC2(CC1)C(=O)NCN2c1ccc(F)cc1` [Compound 296], the IC50 was 0.001 to 5 µM.

Take `O=C(c1cc(-c2cccnc2)n(-c2ccc(F)c(C(F)(F)F)c2)n1)N1CCC(n2c(=O)[nH]c3cc(F)c(F)c(F)c32)CC1` [Compound 297]: the IC50 lay in the range of 0.001 to 5 µM.

With `O=C(c1cc(-c2cccnc2)n(-c2ccc(F)c(C(F)(F)F)c2)n1)N1CCC(n2c(=S)[nH]c3cc(F)c(F)c(F)c32)CC1` [Compound 298], the IC50 lay in the range of 0.001 to 5 µM.

Take `O=C(c1cc(-c2cnccn2)n(-c2ccc(F)c(C(F)(F)F)c2)n1)N1CCC(n2c(=O)[nH]c3ccc(F)c(F)c32)CC1` [Compound 305]: the IC50 fell in the range of 0.001 to 5 µM.

As for `O=C(c1cc(-c2cnccn2)n(-c2ccc(F)c(C(F)(F)F)c2)n1)N1CCC2(CC1)C(=O)NCN2c1ccc(F)cc1` [Compound 306], the IC50 was 0.001 to 5 µM.

Regarding `O=C(c1nn(-c2ccc(F)c(C(F)(F)F)c2)c2c1CCc1ncccc1-2)N1CCC2(CC1)C(=O)NCN2c1ccc(F)cc1` [Compound 313], the IC50 lay in the range of 0.001 to 5 µM.

`O=C(c1nn(-c2ccc(F)c(C(F)(F)F)c2)c2c1CCc1ncccc1-2)N1CCC(n2c(=O)[nH]c3ccc(F)c(F)c32)CC1` [Compound 314]: the IC50 was 0.001 to 5 µM.

Regarding `O=C(c1nn(-c2ccc(F)c(C(F)(F)F)c2)c2c1CCc1cccnc1-2)N1CCC2(CC1)C(=O)NCN2c1ccc(F)cc1` [Compound 315], the IC50 lay in the range of 0.001 to 5 µM.

Turning to `O=C(c1nn(-c2ccc(F)c(C(F)(F)F)c2)c2c1CCc1cccnc1-2)N1CCC(n2c(=O)[nH]c3ccc(F)c(F)c32)CC1` [Compound 316], the IC50 was 0.001 to 5 µM.

For the origin of these results see patent US9951046B2, “TRPA1 modulators” (Algomedix, Inc., priority 2014, dated 2018).
